These molecules were tested against KRas G12D/Q61H double mutant (Homo sapiens (Human), UniProt P01116, G12D/Q61H) (assay: Ras GTP binding domain inhibition assay (labeled GTP)). Details: 20 μM compound; KRas G12D/Q61H double mutant; read-out: % Inhibition at 20 μM of K-Ras mutant and wild-type protein, KRas G12D Q61H.
Summary of the method: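 Labelled-GTP binding: plate-captured His-KRas protein was pre-exposed to compound for 3 h at room temperature (single 20 μM point or dilution series, 1% DMSO, Tris pH 7.5/MgCl2/DTT buffer). Cy3- or Cy5-GTP was then added for 45 min. Washed wells were read for retained fluorescence to give inhibition or IC50.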

Sequence of KRas G12D/Q61H double mutant (P01116-2 other isoform, or with tags, fused parts or gaps G12D/Q61H): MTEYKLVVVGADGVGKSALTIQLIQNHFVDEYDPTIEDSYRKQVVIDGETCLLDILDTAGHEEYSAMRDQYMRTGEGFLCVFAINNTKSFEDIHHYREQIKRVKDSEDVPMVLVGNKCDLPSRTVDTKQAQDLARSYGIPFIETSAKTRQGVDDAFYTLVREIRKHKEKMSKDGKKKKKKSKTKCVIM

Row | SMILES | inhibition at 20 µM [%]
1 | CCCCN1CC(c2nc3ccccc3n2CCCCOc2c(C)cccc2C)CC1=O (stereo not drawn) | 1 to 25
2 | CCCCOCCN(C(=O)c1ccn(-c2ccccc2)n1)c1ccccc1Br | 25 to 50
3 | CCOc1ccc(CN(C)CC(=O)Nc2ccc3c(c2)c2ccccc2n3CC)cc1OC | 25 to 50
4 | Cc1ccc(C(=O)Oc2cccc(C3CN(C(=O)c4ccc(C)s4)CCO3)c2)s1 (stereo not drawn) | 1 to 25
5 | O=C(NCC(F)(F)F)c1ccc(CN(Cc2cc(Cl)cc3c2OCCO3)C2CC2)cc1 | 25 to 50
6 | CCN(c1ncc(C(=O)OC)s1)S(=O)(=O)c1ccc(C)c(C)c1 | 51 to 75
7 | CC(C)n1cnnc1CNCc1ccc(OCc2ccccc2)cc1OCc1ccccc1 | 1 to 25
8 | COc1ccc(CCN2CCN(c3ccc(C#N)c(C(F)(F)F)c3)CC2)cc1 | 25 to 50
9 | CCc1ccc(C(=O)c2cc3ccccc3o2)s1 | 25 to 50
10 | CN(Cc1ccccc1C(F)(F)F)S(=O)(=O)CCc1ccccc1[N+](=O)[O-] | 25 to 50
11 | Cc1cc(C)c2c(N)c(C(=O)OCc3ccc(C(=O)N4CCCC4)cc3)sc2n1 | 1 to 25
12 | CCc1cc(N2CC(Cc3cc(OC)cc(OC)c3)C2)nc(-c2ccncc2)n1 | 1 to 25
13 | CN(Cc1nnc(-c2ccc(F)cc2)o1)CC12CC3CC(CC(C3)C1)C2 | 25 to 50
14 | COCCCN(C(=O)c1ccc(-n2nc(C)c(Cl)c2C)cc1)S(=O)(=O)c1ccc(OC)cc1 | 25 to 50
15 | COC(=O)c1c(CN(C)Cc2nccn2CC(F)(F)F)nc2ccccc2c1-c1ccccc1 | 25 to 50
16 | CCOC(=O)c1c(-c2ccc(C)cc2)csc1NC(=O)CN(C)CC(=O)NC1CCC(O)CC1 (stereo not drawn) | 25 to 50

Other lines, results leading:

Row | inhibition at 20 µM [%] | SMILES
17 | 25 to 50 | COc1ccc(OC)c(CCC(=O)N2CCN(c3ncc(C(F)(F)F)cc3Cl)CC2)c1
18 | 1 to 25 | CC(NC(=O)C1CSC(c2ccccc2)=N1)c1ccccn1 (stereo not drawn)

Same assay, conditions: 20 μM compound; read-out: % Inhibition at 20 μM KRas G12D Q61H

Row | SMILES | inhibition at 20 µM [%]
19 | Cc1cc(C)n(CCCNC(=O)c2cc(S(=O)(=O)N3CCOCC3)ccc2N2CCCC2)n1 | 25 to 50
20 | COc1ccc(OC)c(-c2csc(C3CC3)n2)c1 | 25 to 50
21 | Cc1cccc(OCCn2c(CN3CCCCC3)nc3ccccc32)c1C | 1 to 25
22 | CCCCN(C(=O)c1cnn(-c2ccccc2)n1)c1ccccc1 | 25 to 50
23 | CCN(CC)S(=O)(=O)c1ccc(N2CCOCC2)c(C(=O)NCCCn2cnc3ccccc32)c1 | 1 to 25
24 | COc1ccc(CCNC(=O)c2cc(S(=O)(=O)C3CCCCCC3)ccc2OC)cc1OC | 25 to 50
25 | Nc1nc(O)c2scc(C(=O)N3CCC(N4CCCC4=O)CC3)c2n1 [drawing 2663] | 25 to 50
26 | COC(=O)c1ccc(C(=O)NCC(c2ccccc2)N2CCOCC2)nc1 (stereo not drawn) | 1 to 25
27 | O=C(Nc1ccc(N2CCOCC2)cc1)c1ccccc1OCCOc1ccccc1 | 1 to 25
28 | CCOCCCNC(=O)c1cc(S(=O)(=O)N(CC)CC)ccc1NCCOC | 1 to 25
29 | N#Cc1ccc(OCCSc2nnc(COc3ccc(F)cc3)o2)cc1 | 25 to 50
30 | CC(C)Cc1cc(C(=O)Nc2cc(-c3cccnc3)n[nH]2)[nH]n1 | 1 to 25
31 | COc1ccccc1CN(Cc1cccs1)C(=O)c1ccc(-c2nc(C)no2)cc1 | 1 to 25
32 | O=C(c1ccc(COc2ccccc2)o1)N1CCCc2ccc(F)cc21 | 25 to 50
33 | COc1ccccc1CN(Cc1cccs1)C(=O)c1ccc(Br)o1 | 25 to 50
34 | CCOC(=O)c1sc(N(C2CC2)S(=O)(=O)c2cc(F)ccc2C)nc1C | 25 to 50
35 | COc1ccccc1CN(Cc1cccs1)C(=O)c1ccc(-c2nnn[nH]2)cc1 | 1 to 25
36 | C=CCNC(=O)CN1CCOC(c2nc(-c3ccccc3)cs2)C1 (stereo not drawn) | 1 to 25
37 | Fc1ccccc1-c1csc(C2CN(Cc3ccccc3)CCO2)n1 (stereo not drawn) | 1 to 25
38 | COc1ccc(CN(Cc2cccs2)C(=O)c2oc3ccccc3c2C)cc1OC | 25 to 50

More lines, now with the values ahead:

Row | inhibition at 20 µM [%] | SMILES
39 | 25 to 50 | O=C(c1cc(-c2ccccc2)nc2ccccc12)N1N=CCC1(O)C(F)(F)F (stereo not drawn)
40 | 25 to 50 | O=C(COCC1CC1)Nc1nnc(-c2ccccn2)[nH]1
41 | 1 to 25 | Cc1ccccc1CC(=O)N(CC(F)(F)F)C1CCCOC1 (stereo not drawn)
42 | 1 to 25 | FC(F)(F)c1ccnc(N2CCCC2c2cccs2)n1 (stereo not drawn)
43 | 51 to 75 | O=C(c1csc2c(O)nc(-c3ccccn3)nc12)N1CCOC(c2cccc(O)c2)C1 (stereo not drawn)
44 | 51 to 75 | O=C(Nc1nnc(-c2ccccn2)[nH]1)C1CCCN(c2ncccc2C(F)(F)F)C1 (stereo not drawn)
45 | 1 to 25 | Cc1nc(-c2ccccn2)sc1C(=O)NCCNc1ncccn1
46 | 25 to 50 | COc1cc(CC(=O)Nc2nnc(-c3ccccn3)[nH]2)cc(OC)c1OC
47 | 25 to 50 | CC(=O)N1CCC(Nc2nc(-c3ccccn3)nc3c2CCC3)C1 (stereo not drawn)
48 | 25 to 50 | COc1ccc(CCC(=O)Nc2nnc(-c3ccccn3)[nH]2)cc1OC
49 | 25 to 50 | O=C(Cc1ccc2c(c1)CCCC2)Nc1nnc(-c2ccccn2)[nH]1
50 | 1 to 25 | OCCCSCCNc1nc(-c2ccccn2)nc2c1CCC2
51 | 25 to 50 | O=C(Cc1ccc(OC(F)(F)F)cc1)Nc1nnc(-c2ccccn2)[nH]1
52 | 25 to 50 | O=C(NCc1ccccn1)c1ccn(-c2cccc(Cl)c2)n1
53 | 25 to 50 | COc1ccc(CN2CCN(C(=O)c3csc4c(O)nc(-c5ccccn5)nc34)CC2)cc1 [drawing 2725]
54 | 25 to 50 | O=C(Nc1nnc(-c2ccccn2)[nH]1)c1ccc(NC2CC2)nc1
55 | 25 to 50 | Cc1cc(NCCNC(=O)c2ccco2)nc(-c2ccccn2)n1

Same assay, conditions: 20 μM; read-out: KRas G12D Q61H % Inh.

Row | inhibition at 20 µM [%] | SMILES
56 | 51 to 75 | O=C(Cc1ccccc1F)Nc1nnc(-c2ccccn2)[nH]1
57 | 51 to 75 | Cc1nc(-c2ccccn2)nc(O)c1CCC(=O)Nc1cc(F)ccc1F [drawing 2596]
58 | 51 to 75 | O=C(Nc1nnc(-c2ccccn2)[nH]1)c1ncoc1-c1cccs1 [drawing 2501]
59 | 76 to 100 | Cn1cc(-c2nc(C(=O)Nc3nnc(-c4ccccn4)[nH]3)cs2)cn1 [drawing 2474]
60 | 51 to 75 | O=C(CCCc1nc2ccccc2s1)Nc1nnc(-c2ccccn2)[nH]1
61 | 51 to 75 | CC(C(=O)Nc1nnc(-c2ccccn2)[nH]1)n1cnc2ccccc21 (stereo not drawn)
62 | 51 to 75 | O=C(Cc1c[nH]c2ccccc12)Nc1nnc(-c2ccccn2)[nH]1 [drawing 2456]
63 | 1 to 25 | CN(CC(=O)N1CCCc2c(O)nc(-c3ccccn3)nc21)S(=O)(=O)c1ccccc1 [drawing 2641]
64 | 51 to 75 | O=C(COc1ccccc1)Nc1nnc(-c2ccccn2)[nH]1 [drawing 2545]
65 | 25 to 50 | COc1ccc(CN(CC[S+]([O-])c2cc(Cl)ccc2Cl)C2CC2)cc1 (stereo not drawn) [drawing 2625]
66 | 51 to 75 | COc1cccc(CCC(=O)Nc2nnc(-c3ccccn3)[nH]2)c1 [drawing 2453]
67 | 51 to 75 | O=C(Nc1nnc(-c2ccccn2)[nH]1)C1CCN(C(=O)c2cccs2)CC1 [drawing 2556]
68 | 51 to 75 | O=C(Nc1nnc(-c2ccccn2)[nH]1)C1CCCC1 [drawing 2489]
69 | 51 to 75 | O=C(Nc1nnc(-c2ccccn2)[nH]1)c1ccc(=O)n(CCOc2ccccc2)n1 [drawing 2553]
70 | 76 to 100 | O=C(Nc1nnc(-c2ccccn2)[nH]1)c1csc(-c2ccoc2)n1
71 | 51 to 75 | O=C(Nc1nnc(-c2ccccn2)[nH]1)C1CCCN(C(=O)c2cccs2)C1 (stereo not drawn)

Same assay, conditions: at 20 μM; read-out: KRas G12D Q61H % Inh.

Row | inhibition at 20 µM [%] | SMILES
72 | 0 | COc1cnc(CNC(=O)c2c(C)sc3c(O)nc(-c4ccccn4)nc23)[nH]c1=O [drawing 3841]

Reference: patent US10940139B2, “Compounds that interact with the Ras superfamily for the treatment of cancers, inflammatory diseases, rasopathies, and fibrotic disease” (Shy Therapeutics LLC, priority 2017, dated 2021)
